Legend:
[1] = test system: soft rot of Chinese cabbage; experiment: Test for controlling soft rot of Chinese cabbage, Example 3 / Comparative Example 3 (field, cultivar Muso); assay type: in vivo; details: 500 g ai/10 a, 150 L/10 a sprayed onto planting holes before planting, 51 days after start
Source text: (§1) Frequency of the disease=[sigma(number of plants with the onset of the disease at each severity level*index of the onset of the disease)/(plants examined*4)]*100
(§2) Disease control value=[1-(frequency of the disease in the treated lot/frequency of the disease in the non-treated lot)]*100
(§3) • 0: No onset • 1: Onset in some of outer leaves (shippable) • 2: Onset in outer leaves and some of head leaves (by removing damaged parts, the resulting cabbage can be shipped as small cabbage but is ranked as grade B). • 3: Most of head leaves are inflicted with the onset of the disease or with severer damages (not shippable) • 4: Whole cabbage plant is inflicted with the onset of the disease and is dead.
442 g/l kresoxim-methyl (STROBY FLOWABLE [trade name], manufactured by BASF) was adjusted to 500 g ai/10a (0.5 g/m^2, 1131 ml Product/10a) as the amount of the active ingredient and to 150 L/10a as the volume of diluent water. […]
(§4) 51 days after the start of the tests, all the plants in each lot were examined about the severity level of the disease to assess the frequency of the disease and the disease control value. The frequency of the disease and the disease control value were determined in the same manner as described above. Because soft rot is a disease with damages hardly controlled, herein, even a chemical at the level C determined by the tests of the effects can practically be used.

[2] = test system: bacteria causing the soft rot (Erwinia carotovora); experiment: Inhibition test of growth of bacteria causing soft rot, Reference Test Example 6; assay type: cell-based; details: for formed colonies (growth state), grade: PSA medium, 27 degrees Celsius, 3 days
Source text: (§5) An inhibition test of the growth of bacteria causing the soft rot was done, when a control agent was directly applied to the bacteria causing the soft rot. A given volume of each pesticide of fludioxonil (Seibia FL [trade name] manufactured by Syngenta Japan K.K.), iminoctadine albesilate salt (Bellkute WP [trade name], manufactured by Nippon Soda Co., Ltd.), iprodione (Rovral WP [trade name] manufactured by Bayer Crop Science Co., Ltd.), and streptomycin (Mycin Wettable powder [trade name] manufactured by Hokko Chemical Industry Co., Ltd.) was added together with a suspension of the bacteria causing the soft rot (Erwinia carotovora) to a preliminarily dissolved PSA culture medium (55 degrees Celsius) for subsequent thorough agitation, which was then spread on a plate for culturing at 27 degrees Celsius for 3 days, to examine the growth state. Subsequently, the formed colonies were examined according to the following three grades. • +: at the same level as the level of non-treated lot.
(§6) Plus or minus: apparently less than the colonies of the non-treated lot. • −: almost no colonies observed.

[3] = test system: soft rot of Chinese cabbage; experiment: Test for controlling soft rot of Chinese cabbage, Example 1 / Comparative Example 1 (field, cultivar Muso); assay type: in vivo; details: 250 g ai/10 a, 150 L/10 a sprayed onto planting holes before planting, 54 days after start
Experimental: 200 g/l Azoxystrobin (Amistar 20 FLOWABLE [trade name], manufactured by Syngenta Japan K.K.) was adjusted to 250 g ai/10a (0.25 g/m^2, 1250 ml Product/10a) as the amount of the active ingredient and to 150 L/10a as the volume of diluent water.
100 g/l Cyazofamid (RANMAN FLOWABLE [trade name], manufactured by Ishihara Sangyo Kaisha, Ltd.) was adjusted to 250 g ai/10a (0.25 g/m^2, 2500 ml Product/10a) as the amount of the active ingredient and to 150 L/10a as the volume of diluent water.
177 g/l Amisulbrom (LEIMAY FLOWABLE [trade name], manufactured by Nissan Chemical Industries, Ltd.) was adjusted individually to 250 g ai/10a (0.25 g/m^2, 1412 ml Product/10a) as the amount of the active ingredient and to 150 L/10a as the volume of diluent water.
After spreading an agricultural mulch-sheet and opening planting holes (diameter of about 9 cm) for permanent planting through the mulch-sheet, the spray solutions prepared as described above were sprayed onto the planting holes such that the amount of treated active ingredient of each spray solution was 0.25 g/m^2 (150 L per 10a), followed by air-drying; subsequently, seedlings of Chinese cabbage (cultivar: Muso) grown for 4 weeks in cell mold trays (128 holes/nursery box) were planted such that 30 seedlings were planted in each test lot having an area of 6 m^2 with two replications.
(§7) Preparation was performed by diluting streptomycin (Mycin 20 wettable powder solution [under the trade name] manufactured by Hokko Chemical Industry Co., Ltd.) with water to 1/1000.
In a field spread with the agricultural mulch-sheet, Chinese cabbage seedlings (cultivar: Muso) grown by the same method as in Example 1 were planted by the same method as in Example 1, for spraying the spray solution of streptomycin prepared above in (1) (at each spray volume of 300 L/10a) three times (13 days, 20 days and 27 days after the planting of the seedlings) on the stems and leaves.
54 days after the start of the tests, all the plants in each lot were examined about the severity level of the disease; according to the following equations, the ratio of the plants with the onset of the disease, the frequency of the disease, and the disease control value were calculated to determine and rank the effects at A to D levels. Because soft rot is a disease with damages hardly controlled, herein, even a chemical at the level C determined by the tests of the effects can practically be used.
Ratio of the plants with the onset of the disease=(Number of plants with the onset of the disease/number of plants examined)*100
Frequency of the disease=[sigma(number of plants with the onset of the disease at each severity level*index of the onset of the disease)/(plants examined*4)]*100 […]

[4] = test system: bacteria causing the soft rot (Erwinia carotovora); experiment: Inhibition test of growth of bacteria causing soft rot, Reference Test Example 1; assay type: cell-based; details: for formed colonies (growth state), grade: PSA medium, 25 degrees Celsius, 4 days
Experimental: as §5, with “cyazofamid (RANMAN 400SC” for “fludioxonil (Seibia FL”, “Ishihara Sangyo Kaisha, Ltd.), amisulbrom (LEIMAY FLOWABLE” for “Syngenta Japan K.K.), iminoctadine albesilate salt (Bellkute WP”, “Nissan Chemical Industries, Ltd.)” for “Nippon Soda Co., Ltd.), iprodione (Rovral WP [trade name] manufactured by Bayer Crop Science Co., Ltd.),”, “25” for “27”, “4” for “3”
as §6

[5] = test system: soft rot of Chinese cabbage; experiment: Test for controlling soft rot of Chinese cabbage, Example 2 / Comparative Example 2 (field, cultivar Harebutai 65); assay type: in vivo; details: 500 g ai/10 a, 150 L/10 a sprayed onto planting holes before planting, 64 days after start
Source text: as §1, §2, §3
200 g/l Azoxystrobin (Amistar 20 FLOWABLE [trade name], manufactured by Syngenta Japan K.K.) was adjusted to 500 g ai/10a (0.5 g/m^2, 2500 ml Product/10a) as the amount of the active ingredient and to 150 L/10a as the volume of diluent water.
30% w/w triflumizol (TRIFUMIN WP [trade name], manufactured by Nippon Soda Co., Ltd.) was adjusted to 500 g ai/10a (0.5 g/m^2, 1667 g Product/10a) as the amount of the active ingredient and to 150 L/10a as the volume of diluent water.
100 g/1 cyazofamid (RANMAN PLOWABLE [trade name], manufactured by Ishihara Sangyo Kaisha, Ltd.) was adjusted to 500 g ai/10a (0.5 g/m^2, 5000 ml Product/10a) as the amount of the active ingredient and to 150 L/10a as the volume of diluent water.
50% w/w penthiopyrad (GAIA WG [trade name], manufactured by Mitsui Chemicals Agro, Inc.) was adjusted to 500 g ai/10a (0.5 g/m^2, 1000 g Product/10a) as the amount of the active ingredient and to 150 L/10a as the volume of diluent water.
50 g/l flusulfamide (SCABLOCK SC [trade name], manufactured by Mitsui Chemicals Agro, Inc.) was adjusted to 500 g ai/10a (0.5 g/m^2, 10000 ml Product/10a) as the amount of the active ingredient and to 150 L/10a as the volume of diluent water.
400 g/1 chlorothalonil (Daconil 1000 [the trade name], manufactured by Sumitomo Chemical, Limited) was adjusted to 1000 g ai/10a (1.0 g/m^2, 2500 ml Product/10a) as the amount of the active ingredient and to 150 L/10a as the volume of diluent water.
After spreading an agricultural mulch-sheet and opening planting holes (diameter of about 5 cm) for permanent planting through the mulch-sheet, the spray solutions prepared as described above were sprayed onto the planting holes such that the amount of treated active ingredient of chlorothalonil was 1.0 g/m^2 (150 L per 10a) and the amount of each of the remaining spray solutions was 0.5 g/m^2 (150 L per 10a), followed by air-drying; subsequently, seedlings of Chinese cabbage (cultivar Harebutai 65) grown for 4 weeks in cell mold trays (128 holes/nursery box) were planted such that 19 seedlings were planted in each test lot having an area of 2.4 m^2 with two replications.
as §7
In a field spread with the agricultural mulch-sheet, Chinese cabbage seedlings (cultivar: Harebutai 65) grown by the same method as in Example 2 were planted by the same method as in Example 2, for spraying the spray solution of streptomycin prepared above in (1) (at each spray volume of 300 L/10a) twice (27 days and 48 days after the planting of the seedlings) on the stems and leaves with a sprayer.
as §4, with “64” for “51”, “In the same manner as described above, the” for “The”, “determined. Additionally,” for “determined in the same manner as described above. Because”, “so” for “herein,”

[6] = active ingredient concentration of 1,000 ppm

Molecule	Determination of effect [1]	formed colonies (growth state), grade ([2]; 100 ppm active ingredient)	formed colonies (growth state), grade ([2]; 500 ppm active ingredient)	formed colonies (growth state), grade ([2]; 1000 ppm active ingredient)	inhibition of growth of Erwinia carotovora (in words) [2, 6]	Determination of effect [3]	formed colonies (growth state), grade ([4]; 100 ppm active ingredient)	formed colonies (growth state), grade ([4]; 500 ppm active ingredient)	formed colonies (growth state), grade ([4]; 1000 ppm active ingredient)	inhibition of growth of Erwinia carotovora (in words) [4, 6]	Determination of effect [5]
1,1′-iminodi(octamethylene)diguanidinium=tris(alkylbenzenesulfonate) [Iminoctadine albesilate salt]	B (B: Effective (41 to 60 disease control value))	+, +	+, +	+, +	never inhibited the growth	–	–	–	–	–	–
Cc1ccc(-c2c(Cl)nc(C#N)n2S(=O)(=O)N(C)C)cc1 [Cyazofamid, 4-chloro-2-cyano-N,N-dimethyl-5-p-tolylimidazole-1-sulfoneamide]	–	–	–	–	–	D (D: Poorly effective (20 or smaller disease control value))	+, +	+, +	+, +	never inhibited the growth	C (C: Effective at low level (21 to 40 disease control value))
